Experimental data from ChEMBL document CHEMBL4665709, “Rational Avoidance of Protease Cleavage Sites and Symmetrical End-Tagging Significantly Enhances the Stability and Therapeutic Potential of Antimicrobial Peptides” (J Med Chem, 2020).
In brackets after ≈: the same amount, converted by molar mass. Activity calls are given as the source filed them. No cut-off for these calls is given here.

Assays:
[1] = Therapeutic index, ratio of MHC for human RBC to geometric mean of peptide MIC for Streptococcus agalactiae H92; type: toxicity; conditions: human red blood cells (RBC), read-out: TI
[2] = Therapeutic index, ratio of MHC for human RBC to geometric mean of peptide MIC for Staphylococcus epidermidis ATCC 12228; type: toxicity; conditions: human red blood cells (RBC), read-out: TI
[3] = Therapeutic index, ratio of MHC for human RBC to geometric mean of peptide MIC for methicillin-resistant Staphylococcus aureus 43300; type: toxicity; conditions: human red blood cells (RBC), read-out: TI
[4] = Therapeutic index, ratio of MHC for human RBC to geometric mean of peptide MIC for Enterococcus faecalis ATCC 29212; type: toxicity; conditions: human red blood cells (RBC), read-out: TI
[5] = Therapeutic index, ratio of MHC for human RBC to geometric mean of peptide MIC for Staphylococcus aureus ATCC 29213; type: toxicity; conditions: human red blood cells (RBC), read-out: TI
[6] = Therapeutic index, ratio of MHC for human RBC to geometric mean of peptide MIC for Staphylococcus aureus 11011; type: toxicity; conditions: human red blood cells (RBC), read-out: TI
[7] = Therapeutic index, ratio of MHC for human RBC to geometric mean of peptide MIC for Salmonella pullorum 7913; type: toxicity; conditions: human red blood cells (RBC), read-out: TI
[8] = Therapeutic index, ratio of MHC for human RBC to geometric mean of peptide MIC for Salmonella typhimurium 7731; type: toxicity; conditions: human red blood cells (RBC), read-out: TI
[9] = Therapeutic index, ratio of MHC for human RBC to geometric mean of peptide MIC for Salmonella choleraesuis 503; type: toxicity; conditions: human red blood cells (RBC), read-out: TI
[10] = Therapeutic index, ratio of MHC for human RBC to geometric mean of peptide MIC for Escherichia coli UB1005; type: toxicity; conditions: human red blood cells (RBC), read-out: TI
[11] = Therapeutic index, ratio of MHC for human RBC to geometric mean of peptide MIC for Salmonella typhimurium 14028; type: toxicity; conditions: human red blood cells (RBC), read-out: TI
[12] = Therapeutic index, ratio of MHC for human RBC to geometric mean of peptide MIC for Escherichia coli ATCC 25922; type: toxicity; conditions: human red blood cells (RBC), read-out: TI
[13] = Antibacterial activity against Salmonella pullorum 7913 after 18 to 24 hrs by CLSI-based broth microdilution method; type: functional, Salmonella enterica subsp. enterica serovar Pullorum; conditions: Salmonella enterica, time hrs 18-24
Salmonella enterica = assay: Antibacterial activity against Salmonella choleraesuis 503 after 18 to 24 hrs by CLSI-based broth microdilution method; type: functional; conditions: time hrs 18-24
Enterococcus faecalis = assay: Antibacterial activity against Enterococcus faecalis ATCC 29212 after 18 to 24 hrs by CLSI-based broth microdilution method; type: functional; conditions: time hrs 18-24
Streptococcus agalactiae = assay: Antibacterial activity against Streptococcus agalactiae H92 after 18 to 24 hrs by CLSI-based broth microdilution method; type: functional; conditions: time hrs 18-24
Erythrocyte = assay: Hemolytic activity in human RBC assessed as hemolysis; type: ADME, cell-based
[14] = Hemolytic activity in human RBC assessed as hemolysis at 1 to 128 uM relative to control; type: ADME, cell-based, Erythrocyte; conditions: human red blood cells (RBC), dose 1-128 µM, read-out: Activity
[15] = Hemolytic activity in human RBC assessed as hemolysis at 1 uM relative to control; type: ADME, cell-based, Erythrocyte; conditions: human red blood cells (RBC), read-out: Activity
RAW264.7 = assay: Cytotoxicity against mouse RAW264.7 cells assessed as reduction in cell viability lower concentration by MTT assay; type: cell-based
HEK-293T = assay: Cytotoxicity against HEK-293T cells assessed as reduction in cell viability at lower concentration by MTT assay; type: cell-based; conditions: human
[16] = Stability of compound at 100 degreeC after 30 to 90 mins; type: physicochemical; conditions: time 30-90 min
Escherichia coli [17] = assay: Antibacterial activity against Escherichia coli ATCC 25922 measured after 18 to 24 hrs in presence of trypsin by CLSI-based broth microdilution method; type: functional, organism-based; conditions: time hrs 18-24
Escherichia coli [18] = assay: Antibacterial activity against Escherichia coli ATCC 25922 measured after 18 to 24 hrs in presence of chymotrypsin by CLSI-based broth microdilution method; type: functional, organism-based; conditions: time hrs 18-24
Escherichia coli [19] = assay: Antibacterial activity against Escherichia coli ATCC 25922 measured after 18 to 24 hrs in presence of pepsin by CLSI-based broth microdilution method; type: functional, organism-based; conditions: time hrs 18-24
Escherichia coli [20] = assay: Antibacterial activity against Escherichia coli ATCC 25922 measured after 18 to 24 hrs in presence of proteinase K by CLSI-based broth microdilution method; type: functional, organism-based; conditions: time hrs 18-24
Staphylococcus aureus [21] = assay: Antibacterial activity against Staphylococcus aureus 29213 with 0.0625-2 mg/mL trypsin for 1 hr followed by test compound addition measured after 4 to 8 hrs by CLSI-based broth microdilution method; type: functional, organism-based; conditions: time hrs 4-8
Staphylococcus aureus [22] = assay: Antibacterial activity against Staphylococcus aureus 29213 with 0.0625-2 mg/mL chymotrypsin for 1 hr followed by test compound addition measured after 4 to 8 hrs by CLSI-based broth microdilution method; type: functional, organism-based; conditions: time hrs 4-8
Staphylococcus aureus [23] = assay: Antibacterial activity against Staphylococcus aureus 29213 with 0.0625-2 mg/mL pepsin for 1 hr followed by test compound addition measured after 4 to 8 hrs by CLSI-based broth microdilution method; type: functional, organism-based; conditions: time hrs 4-8
Staphylococcus aureus [24] = assay: Antibacterial activity against Staphylococcus aureus 29213 with 0.0625-2 mg/mL proteinase K for 1 hr followed by test compound addition measured after 4 to 8 hrs by CLSI-based broth microdilution method; type: functional, organism-based; conditions: time hrs 4-8
Trypsin [25] = target: T1, Trypsin (Homo sapiens, UniProt P07477+P07478+P35030); assay: Stability of compound assessed as trypsin (unknown origin)-mediated drug degradation after 1 hr by RP-HPLC analysis; type: ADME, protein assay
[26] = Stability of compound assessed as chymotrypsin (unknown origin)-mediated drug degradation after 1 hr by RP-HPLC analysis; type: ADME; conditions: human
[27] = Stability of compound assessed as pepsin (unknown origin)-mediated drug degradation after 1 hr by RP-HPLC analysis; type: ADME; conditions: human
[28] = Stability of compound assessed as proteinase K (unknown origin)-mediated drug degradation after 1 hr by RP-HPLC analysis; type: ADME; conditions: human
Trypsin [29] = target: T1, Trypsin; assay: Stability of compound assessed as trypsin (unknown origin)-mediated drug degradation after 1 hr by SDS-PAGE analysis; type: ADME, protein assay
[30] = Stability of compound assessed as chymotrypsin (unknown origin)-mediated drug degradation after 1 hr by SDS-PAGE analysis; type: ADME; conditions: human
[31] = Stability of compound assessed as pepsin (unknown origin)-mediated drug degradation after 1 hr by SDS-PAGE analysis; type: ADME; conditions: human
[32] = Stability of compound assessed as proteinase K (unknown origin)-mediated drug degradation after 1 hr by SDS-PAGE analysis; type: ADME; conditions: human
Cell membrane = assay: Induction of outer membrane permeabilization in Escherichia coli ATCC 25922 after 30 mins by NPN-dye based assay

For `CC[C@H](C)[C@H](NC(=O)CN)C(=O)NCC(=O)N[C@@H](C)C(=O)N[C@H](C(=O)N[C@@H](CC(C)C)C(=O)N[C@@H](CCCCN)C(=O)N[C@H](C(=O)N[C@@H](CC(C)C)C(=O)N[C@H](C(=O)N[C@H](C(=O)NCC(=O)N[C@@H](CC(C)C)C(=O)N1CCC[C@H]1C(=O)N[C@@H](C)C(=O)N[C@@H](CC(C)C)C(=O)N[C@H](C(=O)N[C@@H](CO)C(=O)N[C@@H](Cc1c[nH]c2ccccc12)C(=O)N[C@H](C(=O)N[C@@H](CCCCN)C(=O)N[C@@H](CCCNC(=N)N)C(=O)N[C@@H](CCCCN)C(=O)N[C@@H](CCCNC(=N)N)C(=O)N[C@@H](CCC(N)=O)C(=O)N[C@@H](CCC(N)=O)C(N)=O)[C@@H](C)CC)[C@@H](C)CC)[C@@H](C)O)[C@@H](C)O)C(C)C)C(C)C` [MELITTIN], the selectivity ratio [1] was 0.56, the selectivity ratio [2] was 0.56 and the selectivity ratio [3] was 0.56. It also gave a selectivity ratio [4] of 0.56, a selectivity ratio [5] of 0.56 and a selectivity ratio [6] of 0.56. The selectivity ratio [7] was 0.4, the selectivity ratio [8] was 0.4 and the selectivity ratio [9] was 0.4. The selectivity ratio [10] was 0.4, the selectivity ratio [11] was 0.4 and the selectivity ratio [12] was 0.4. For the same compound, the MIC [13] was 4 µM (≈ 11.4 µg/mL), the MIC (Salmonella enterica) was 4 µM (≈ 11.4 µg/mL) and the MIC (Enterococcus faecalis) was 2 µM (≈ 5.69 µg/mL). It also gave an MIC (Streptococcus agalactiae) of 1 µM (≈ 2.85 µg/mL), an MHC (Erythrocyte) of 1 µM and a hemolysis at up to 128 µM [14] of under 5%. The hemolysis at 1 µM [15] was 10.1%, the Activity (RAW264.7) was “Toxic” and the Activity (HEK-293T) was “Toxic”. The Stabilty [16] was “Stable”, the Activity (Escherichia coli [17]) was “inactive” and the Activity (Escherichia coli [18]) was “inactive”. The Activity (Escherichia coli [19]) was “inactive”, the Activity (Escherichia coli [20]) was “inactive” and the Activity (Staphylococcus aureus [21]) was “inactive”. The Activity (Staphylococcus aureus [22]) was “inactive”, the Activity (Staphylococcus aureus [23]) was “inactive” and the Activity (Staphylococcus aureus [24]) was “inactive”. The Stabilty (Trypsin [25]) was “Unstable”, the Stabilty [26] was “Unstable” and the Stabilty [27] was “Unstable”. For the same compound, the Stabilty [28] was “Unstable”, the Stabilty (Trypsin [29]) was “Unstable” and the Stabilty [30] was “Unstable”. The Stabilty [31] was “Unstable”, the Stabilty [32] was “Unstable” and the Activity (Cell membrane) was “Dose-dependent effect”.
